System: recombinant guanylate cyclase reporter cell line
Assay: Effect on a recombinant guanylate cyclase reporter cell line
Type: cell-based
Settings: in some cases mean values for individual determinations
Procedure: B-2. Effect on a Recombinant Guanvlate Cyclase Reporter Cell Line
The cellular activity of the compounds according to the invention is determined using a recombinant guanylate cyclase reporter cell line, as described in F. Wunder et al., Anal. Biochem. 339, 104-112 (2005).
Representative MEC values (MEC=minimum effective concentration) for the compounds of the invention are shown in the table below (in some cases as mean values for individual determinations): […]

SMILES	MEC (minimum effective concentration) [µM]
Cc1nc2c(OCc3c(F)cccc3F)cc(Cl)cn2c1C(=O)NCC(C)(N)CCF (single isomer, unassigned; enantiomer b) [Example 9, ent-N-(2-Amino-4-fluoro-2-methylbutyl)-6-chloro-8-[(2,6-difluorobenzyl)oxy]-2-methylimidazo[1,2-a]pyridine-3-carboxamide (enantiomer B)]	0.1
Cc1nc2c(OCc3c(F)cccc3F)cc(Cl)cn2c1C(=O)NCC(C)(N)CCC(F)(F)F (single isomer, unassigned; enantiomer b) [Example 2, ent-N-(2-Amino-5,5,5-trifluoro-2-methylpentyl)-6-chloro-8-[(2,6-difluorobenzyl)oxy]-2-methylimidazo[1,2-a]pyridine-3-carboxamide (enantiomer B)]	0.3
Cc1nc2c(OCc3c(F)cccc3F)cc(Cl)cn2c1C(=O)NCC(C)(N)CCCF (single isomer, unassigned; enantiomer a) [Example 3, ent-N-(2-Amino-5-fluoro-2-methylpentyl)-6-chloro-8-[(2,6-difluorobenzyl)oxy]-2-methylimidazo[1,2-a]pyridine-3-carboxamide (enantiomer A)]	0.1
Cc1nc2c(OCc3c(F)cccc3F)cc(Cl)cn2c1C(=O)NCC(C)(N)CCCF (single isomer, unassigned; enantiomer b) [Example 4, ent-N-(2-Amino-5-fluoro-2-methylpentyl)-6-chloro-8-[(2,6-difluorobenzyl)oxy]-2-methylimidazo[1,2-a]pyridine-3-carboxamide (enantiomer B)]	0.1
Cc1nc2c(OCc3c(F)cccc3F)cc(Cl)cn2c1C(=O)NCC(C)(N)CCF (racemic) [Example 7, rac-N-(2-Amino-4-fluoro-2-methylbutyl)-6-chloro-8-[(2,6-difluorobenzyl)oxy]-2-methylimidazo[1,2-a]pyridine-3-carboxamide (racemate)]	0.1
Cc1nc2c(OCc3c(F)cccc3F)cc(Cl)cn2c1C(=O)NCC(C)(N)CC(F)F (single isomer, unassigned; enantiomer b) [Example 6, ent-N-(2-Amino-4,4-difluoro-2-methylbutyl)-6-chloro-8-[(2,6-difluorobenzyl)oxy]-2-methylimidazo[1,2-a]pyridine-3-carboxamide (enantiomer B)]	0.3
Cc1nc2c(OCc3c(F)cccc3F)cc(Cl)cn2c1C(=O)NCC(C)(N)CCF (single isomer, unassigned; enantiomer a) [Example 8, ent-N-(2-Amino-4-fluoro-2-methylbutyl)-6-chloro-8-[(2,6-difluorobenzyl)oxy]-2-methylimidazo[1,2-a]pyridine-3-carboxamide (enantiomer A)]	0.1
Cc1nc2c(OCc3c(F)cccc3F)cc(Cl)cn2c1C(=O)NCC(C)(N)CF (single isomer, unassigned; enantiomer b) [Example 1, ent-N-(2-Amino-3-fluoro-2-methylpropyl)-6-chloro-8-[(2,6-difluorobenzyl)oxy]-2-methylimidazo[1,2-a]pyridine-3-carboxamide (enantiomer B)]	0.3
Cc1nc2c(OCc3c(F)cccc3F)cc(Cl)cn2c1C(=O)NCC(C)(N)CC(F)F (single isomer, unassigned; enantiomer a) [Example 5, ent-N-(2-Amino-4,4-difluoro-2-methylbutyl)-6-chloro-8-[(2,6-difluorobenzyl)oxy]-2-methylimidazo[1,2-a]pyridine-3-carboxamide (enantiomer A)]	0.3
